Test results: patent US20240342292A1, “Compounds for the Degradation of EGFR Kinase” (BeiGene Switzerland GmbH, priority 2021, published 2024)

What was measured:
Del19/T790M/C797S EGFR = assay: EGFR degradation HTRF assay in H1975-clone #28 (DTC) cells; type: cell-based; settings: H1975 # 28 DTC (Del19/T790M/C797S), 16h treatment; for DC50: HTRF; for Dmax (%): maximum percentage of degradation
Method in brief: (§1)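 DC50 from a four-parameter fit of HTRF signal. H1975 mutant-EGFR clones with endogenous EGFR knocked out; 16 h treatment, 10 uM top, 5-fold × 8.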

L858R/T790M/C797S EGFR = target: T1, L858R/T790M/C797S EGFR (Homo sapiens, UniProt P00533, C797S/L858R/T790M); assay: EGFR degradation HTRF assay in H1975-clone #25 (LTC) cells; type: cell-based; settings: 16h treatment; for DC50: H1975 # 25-LTC (L858R/T790M/C797S), HTRF; for Dmax: NCI-H1975, H1975 # 25-LTC (L858R/T790M/C797S), maximum percentage of degradation
T1 construct: expressed in transfected cells; host or cells: H1975 clone #25 (lentiviral over-expression, endogenous EGFR knocked out by sgRNA)
T1 sequence (P00533 25-1210 T790M/C797S/L858R): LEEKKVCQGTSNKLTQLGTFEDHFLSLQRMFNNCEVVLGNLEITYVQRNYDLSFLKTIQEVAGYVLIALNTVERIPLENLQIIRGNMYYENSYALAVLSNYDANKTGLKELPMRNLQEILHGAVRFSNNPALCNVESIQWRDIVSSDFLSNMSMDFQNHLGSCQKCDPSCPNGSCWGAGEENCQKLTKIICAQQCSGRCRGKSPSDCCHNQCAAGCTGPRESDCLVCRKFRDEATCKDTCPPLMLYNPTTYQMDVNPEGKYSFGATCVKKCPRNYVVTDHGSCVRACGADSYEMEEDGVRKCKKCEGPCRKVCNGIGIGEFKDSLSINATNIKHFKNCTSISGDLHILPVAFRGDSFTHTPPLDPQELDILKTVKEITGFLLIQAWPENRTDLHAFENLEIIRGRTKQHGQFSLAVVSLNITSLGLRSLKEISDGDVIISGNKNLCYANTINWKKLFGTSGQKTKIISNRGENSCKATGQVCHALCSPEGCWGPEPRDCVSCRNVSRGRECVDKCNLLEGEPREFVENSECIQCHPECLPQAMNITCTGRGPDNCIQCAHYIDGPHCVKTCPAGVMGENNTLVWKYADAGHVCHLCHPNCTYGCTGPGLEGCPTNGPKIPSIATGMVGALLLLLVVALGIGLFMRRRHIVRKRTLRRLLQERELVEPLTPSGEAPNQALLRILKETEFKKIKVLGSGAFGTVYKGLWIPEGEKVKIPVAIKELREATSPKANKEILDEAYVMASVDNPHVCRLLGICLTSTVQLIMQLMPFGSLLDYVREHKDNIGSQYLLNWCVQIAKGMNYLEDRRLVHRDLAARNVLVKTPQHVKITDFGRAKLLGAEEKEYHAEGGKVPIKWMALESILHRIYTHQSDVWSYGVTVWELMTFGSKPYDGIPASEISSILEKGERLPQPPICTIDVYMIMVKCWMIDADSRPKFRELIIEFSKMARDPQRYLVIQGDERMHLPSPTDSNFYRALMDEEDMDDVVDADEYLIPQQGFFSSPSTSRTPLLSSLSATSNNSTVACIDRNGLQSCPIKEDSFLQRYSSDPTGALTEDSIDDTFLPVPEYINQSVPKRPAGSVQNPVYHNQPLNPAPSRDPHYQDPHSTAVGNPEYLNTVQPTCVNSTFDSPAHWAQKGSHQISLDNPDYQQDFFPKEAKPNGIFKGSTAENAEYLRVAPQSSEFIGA
Method in brief: as §1

**Q.** How did the DC50 (Del19/T790M/C797S EGFR) turn out when `Cc1cc2cc(n1)-c1cnn(C)c1OCCC[C@@H](C)CN1/C(=N/C2=O)Nc2ccc(C(=O)N[C@@H]3CCN(CCc4cc(F)c([C@H]5CCC(=O)NC5=O)c(F)c4)CC3(F)F)cc21` [Example 260, (R,E)-N—((R)-1-(4-((R)-2,6-dioxopiperidin-3-yl)-3,5-difluorophenethyl)-3,3-difluoropiperidin-4-yl)-1,2^6,7-trimethyl-3-oxo-5^2,5^3-dihydro-1^1H,5^1H-11-oxa-4-aza-5(2,1)-benzo[d]imidazola-2(2,4)-pyridina-1(4,5)-pyrazolacycloundecaphane-5^6-carboxamide] was run?
**A.** The DC50 was 0.633 nM.

**Q.** What about the “Dmax (%)” value (Del19/T790M/C797S EGFR) of the same compound?
**A.** Its value is 86.51%.

**Q.** What about the DC50 (L858R/T790M/C797S EGFR) of the same compound?
**A.** The DC50 was 0.544 nM.

**Q.** What about the Dmax (L858R/T790M/C797S EGFR) of the same compound?
**A.** Its Dmax is 94%.

**Q.** With `Cc1cc2cc(n1)-c1cnn(C)c1OCCC[C@@H](C)CN1/C(=N/C2=O)Nc2ccc(CN3CC4(C3)CN(C(=O)[C@H]3CN(c5cc(F)c([C@H]6CCC(=O)NC6=O)c(F)c5)CC3(C)C)C4)cc21` [Example 80, (R)-3-(4-((R)-3,3-dimethyl-4-(6-(((R,E)-1^1,2^6,7-trimethyl-3-oxo-5^2,5^3-dihydro-1^1H,5^1H-11-oxa-4-aza-5(2,1)-benzo[d]imidazola-2(2,4)-pyridina-1(4,5)-pyrazolacycloundecaphane-5^6-yl)methyl)-2,6-diazaspiro[3.3]heptane-2-carbonyl)pyrrolidin-1-yl)-2,6-difluorophenyl)piperidine-2,6-dione] as the compound, how does the DC50 (Del19/T790M/C797S EGFR) read?
**A.** The DC50 was 0.8 nM.

**Q.** What about the “Dmax (%)” value (Del19/T790M/C797S EGFR) of the same compound?
**A.** The value was 87.0%.

**Q.** And the DC50 (L858R/T790M/C797S EGFR)?
**A.** The DC50 was 0.8 nM.

**Q.** And the Dmax (L858R/T790M/C797S EGFR)?
**A.** Its Dmax is 87.5%.

**Q.** `Cc1cc2cc(n1)-c1cnn(C)c1OCCC[C@@H](C)CN1/C(=N/C2=O)Nc2ccc(N3CCN(C4CCN(c5cc(F)c([C@H]6CCC(=O)NC6=O)c(F)c5)CC4)C(=O)C3)cc21` [Example 425, (R)-3-(2,6-difluoro-4-(4-(2-oxo-4-((R,E)-1^1,2^6,7-trimethyl-3-oxo-5^2,5^3-dihydro-1^1H,5^1H-11-oxa-4-aza-5(2,1)-benzo[d]imidazola-2(2,4)-pyridina-1(4,5)-pyrazolacycloundecaphane-5^6-yl)piperazin-1-yl)piperidin-1-yl)phenyl)piperidine-2,6-dione] was tested. Which DC50 (Del19/T790M/C797S EGFR) did it give?
**A.** Its DC50 is 0.957 nM.

**Q.** What about the “Dmax (%)” value (Del19/T790M/C797S EGFR) of the same compound?
**A.** The value was 83.85%.

**Q.** What about the DC50 (L858R/T790M/C797S EGFR) of the same compound?
**A.** Its DC50 is 0.73 nM.

**Q.** And the Dmax (L858R/T790M/C797S EGFR)?
**A.** Its Dmax is 92.7%.

**Q.** How did the DC50 (Del19/T790M/C797S EGFR) turn out when `Cc1cc2cc(n1)-c1cnn(C)c1OCC[C@H]1C[C@@H]1CN1/C(=N/C2=O)Nc2ccc(N3CCN(CC4CN(c5cc(F)c([C@H]6CCC(=O)NC6=O)c(F)c5)C4)CC3)cc21` [Example 461, (R)-3-(4-(3-((4-((7^1S,7^2R,E)-1^1,2^6-dimethyl-3-oxo-5^2,5^3-dihydro-1^1H,5^1H-10-oxa-4-aza-5(2,1)-benzo[d]imidazola-2(2,4)-pyridina-1(4,5)-pyrazola-7(1,2)-cyclopropanacyclodecaphane-5^6-yl)piperazin-1-yl)methyl)azetidin-1-yl)-2,6-difluorophenyl)piperidine-2,6-dione] was run?
**A.** The DC50 was 0.702 nM.

**Q.** What about the “Dmax (%)” value (Del19/T790M/C797S EGFR) of the same compound?
**A.** The value was 84.7%.

**Q.** And the DC50 (L858R/T790M/C797S EGFR)?
**A.** The DC50 was 1.64 nM.

**Q.** What about the Dmax (L858R/T790M/C797S EGFR) of the same compound?
**A.** The Dmax was 90.6%.

**Q.** How did the DC50 (Del19/T790M/C797S EGFR) turn out when `Cc1cc2cc(n1)-c1cnn(C)c1OCCC[C@@H](C)CN1/C(=N/C2=O)Nc2ccc(C(=O)N(C)C3CCN(CCc4cccc5c4n(C)c(=O)n5C4CCC(=O)NC4=O)CC3)cc21` (stereo partly drawn) [Example 314, (7R,E)-N-(1-(2-(1-(2,6-dioxopiperidin-3-yl)-3-methyl-2-oxo-2,3-dihydro-1H-benzo[d]imidazol-4-yl)ethyl)piperidin-4-yl)-N,1^1,2^6,7-tetramethyl-3-oxo-5^2,5′-dihydro-1^1H,5^1H-11-oxa-4-aza-5(2,1)-benzo[d]imidazola-2(2,4)-pyridina-1(4,5)-pyrazolacycloundecaphane-5^6-carboxamide] was run?
**A.** The DC50 was 3.37 nM.

**Q.** What about the “Dmax (%)” value (Del19/T790M/C797S EGFR) of the same compound?
**A.** Its value is 50.86%.

**Q.** What about the DC50 (L858R/T790M/C797S EGFR) of the same compound?
**A.** The DC50 was 2.59 nM.

**Q.** What about the Dmax (L858R/T790M/C797S EGFR) of the same compound?
**A.** Its Dmax is 75.3%.
